# Results taken from patent US7531195B2, “Schisandrin B preparation” (priority 2005, dated 2009).
# Experiments:
# H9c2 cells [1] = assay: Cellular GSH level in H9c2 cells, time course, with or without xanthine/xanthine oxidase (X/XO) challenge; assay type: cell-based, rat; settings: 6.25 μM
# Protocol: (§1) H9c2 cells, a permanent cell line derived from cardiac myoblasts of rat embryo, have early been characterized as a suitable model of myocardial cells [Hescheler et al. 1991]. H9c2 cells were cultured as monolayers in Dulbecco's modified Eagle's medium (GIBCO BRL) supplemented with 10% (v/v) fetal bovine serum. The medium contained glucose (4.5 g/L) and glutamine (4.5 mM), supplemented with NaHCO3 (17 mM), penicillin (100 IU/ml), and streptomycin (100 μg/ml). Cells were grown under an atmosphere of 5% CO2 in air at 37° C. The medium was replaced by fresh medium every 2 or 3 days. A stock of cells was grown in a 75 cm culture flask and split before confluence at a subcultivation ratio of 1:10. Cells used for experiments were seeded at a density of 3.75×10^4 cells/well on a 12-well culture plate, and the cells were grown for 24 h to about 80% confluence prior to drug treatment.
# (§2) Cultured H9c2 cells were treated with (−) Schisandrin B, (+) Schisandrin B or (±) Schisandrin B (dissolved in DMSO) at 6.25 μM (0.2% DMSO final concentration) for increasing periods of time. Control cells were given the vehicle (i.e. DMSO) only. Immediately following the drug or vehicle pretreatment, the cells were challenged with a mixture of xanthine (X) (0.1 mM) and xanthine oxidase (XO) (0.4 U/ml) for 4 h. The control cells were treated with the medium only. After the X/XO challenge, the medium was taken for the measurement of LDH activity, a biochemical index of cellular injury.
# (§3) The cells were washed twice with 0.5 ml cold phosphate-buffered saline (PBS), An aliquot (200 μl) of 3% sulfonsalicyclic acid was then added, and the mixture was incubate at 4° C. for 10 min. After centrifuging at 300 g for 15 min at 4° C., the supernatant was used for GSH measurement by an enzymatic method of Griffith (1980).
# H9c2 cells [2] = assay: Xanthine/xanthine oxidase-induced cytotoxicity (LDH leakage) in H9c2 cells; assay type: cell-based, rat; settings: X/XO challenge, 6.25 μM
# Protocol: as §1, §2
# H9c2 cells [3] = assay: Menadione-induced toxicity (LDH) in H9c2 cells; assay type: cell-based, rat
# Protocol: as §1
# (§4) Cultured H9c2 cells were treated with (−) Schisandrin B, (+) Schisandrin B or (±) Schisandrin B (dissolved in DMSO) at 6.25 μM (0.2% DMSO final concentration) for 16 h. Control cells were given the vehicle (i.e. DMSO) only. Immediately following the drug or vehicle pretreatment, the cells were challenged with menadione (dissolved in ethanol) at 12.5 μM (0.2% ethanol final concentration) for 4 h. The control cells were treated with the medium containing 0.2% ethanol only. After the menadione challenge, the medium was taken for the measurement of LDH activity, an biochemical index of cell injury.
# H9c2 cells [4] = assay: Cellular GSH level in H9c2 cells with or without menadione challenge; assay type: cell-based, rat
# Protocol: as §1, §4, §3
# Hsp25 = Hsp25 expression in H9c2 cells (Western blot); assay type: cell-based, rat; settings: 6.25 μM
# Protocol: as §1
# (§5) Cultured H9c2 cells were treated with (−) Schisandrin B, (+) Schisandrin B or (±) Schisandrin B (dissolved in DMSO) at 6.25 μM (0.2% DMSO final concentration) for increasing periods of time. Control cells were given the vehicle (i.e. DMSO) only.
# (§6) Immediately following the drug treatment, the cells were washed twice with 0.5 ml cold PBS and treated with 100 μl lysis buffer containing 20 mM Tris HCl, 3 mM EGTA, 1% Triton X-100, 10% glycerol and 2 mM dithiothreitol, pH 7.5, with freshly added protease inhibitors (1 mM phenylmethylsulfonyl fluoride, 0.1 mM benzamide, 5 μg/ml leupeptin, 5 μg aproptinin and 5 μg/ml pepstain A). The mixture was incubated at 4° C. for 15 min with constant shaking. Then the cells were scraped off from the plate, and the extract was transferred to a microcentrifuge tube for centrifugation at 2,400 g for 3 min at 4° C. The resultant supernatant was used for Hsp analysis. Hsp25 and Hsp70 levels was estimated by Western blot analysis using specific antibodies (anti-Hsp25, catalog #SPA-801; anti-Hsp70, catalog #SPA-812) from StressGen (Vancouver, BC, Canada) following SDS-PAGE analysis cell lysates, using a separating gel of 10% acrylamide as described in Ip et. al. [2001]. Hsp25/27 and Hsp70 (human recombinant proteins from StressGen) and actin (bovine muscle from Sigma) were used as markers for reference. […] All immuno-blots were analyzed by densitometry, and the amounts (arbitrary units) of Hsp were normalized with reference to actin levels (arbitrary units) in the sample.
# Hsp70 = Hsp70 expression in H9c2 cells (Western blot); assay type: cell-based, rat; settings: 6.25 μM
# Protocol: as §1, §5, §6
# H9c2 cells [5] = assay: Cytotoxicity test in H9c2 cells (trypan blue, LDH leakage, WST); assay type: cell-based; settings: 100 μM; 24 h
# Protocol: as §1
# Cultured H9c2 cells were treated with (−) Schisandrin B or (+) Schisandrin B (dissolved in DMSO) at 6.25 μM (0.2% DMSO final concentration) at increasing concentrations or at increasing concentrations for 24 h. Control cells were given the vehicle (i.e. DMSO) only.
# Cell viability was evaluated by trypan blue staining (dead cells) and LDH leakage as well as WST staining (viable cells).
# [6] = X/XO challenge, 16 h post-dosing
# [7] = 0 h post-dosing (unpretreated control)
# [8] = MENADIONE 12.5 μM for 4 h, drug 6.25 μM for 16 h
# [9] = NON-MENADIONE, 6.25 μM for 16 h
smiles,measurement,setting,value
"COc1cc2c(c(OC)c1OC)-c1c(cc3c(c1OC)OCO3)CC(C)C(C)C2 (single isomer, unassigned; (+)) [(+) Sch B, (+) Schisandrin B]",GSH Level,"H9c2 cells [1]; NON-X/XO, 0 h post-dosing (unpretreated control)",34.2 ± 2.41 nmol/mg protein
same,GSH Level,"H9c2 cells [1]; NON-X/XO, 4 h post-dosing",38.3 ± 1.48 nmol/mg protein
same,GSH Level,"H9c2 cells [1]; NON-X/XO, 8 h post-dosing",46.3 ± 0.85 nmol/mg protein
same,GSH Level,"H9c2 cells [1]; NON-X/XO, 16 h post-dosing",73.9 ± 1.38 nmol/mg protein
same,"GSH Level, percent increase vs unpretreated control (0 h)","H9c2 cells [1]; NON-X/XO, 16 h post-dosing",(117%)
same,GSH Level,"H9c2 cells [1]; NON-X/XO, 24 h post-dosing",66.7 ± 1.83 nmol/mg protein
same,GSH Level,"H9c2 cells [1]; NON-X/XO, 48 h post-dosing",59.0 ± 2.94 nmol/mg protein
same,GSH Level,"H9c2 cells [1]; X/XO challenge, 0 h post-dosing (unpretreated control)",13.9 ± 1.68 nmol/mg protein
same,GSH Level,"H9c2 cells [1]; X/XO challenge, 4 h post-dosing",15.4 ± 0.55 nmol/mg protein
same,GSH Level,"H9c2 cells [1]; X/XO challenge, 8 h post-dosing",16.8 ± 0.85 nmol/mg protein
same,GSH Level,H9c2 cells [1]; [6],18.4 ± 0.33 nmol/mg protein
same,"GSH Level, percent increase vs unpretreated control (0 h)",H9c2 cells [1]; [6],(32%)
same,GSH Level,"H9c2 cells [1]; X/XO challenge, 24 h post-dosing",17.2 ± 0.36 nmol/mg protein
same,GSH Level,"H9c2 cells [1]; X/XO challenge, 48 h post-dosing",14.1 ± 0.53 nmol/mg protein
same,LDH Leakage,H9c2 cells [2]; [7],35.7 ± 0.24 U/L
same,LDH Leakage,H9c2 cells [2]; 4 h post-dosing,31.3 ± 0.71 U/L
same,LDH Leakage,H9c2 cells [2]; 8 h post-dosing,25.2 ± 0.45 U/L
same,LDH Leakage,H9c2 cells [2]; 16 h post-dosing,19.4 ± 0.29 U/L
same,"LDH Leakage, percent protection vs unpretreated control (0 h)",H9c2 cells [2]; 16 h post-dosing,(62%)
same,LDH Leakage,H9c2 cells [2]; 24 h post-dosing,22.4 ± 1.07 U/L
same,LDH Leakage,H9c2 cells [2]; 48 h post-dosing,33.5 ± 0.17 U/L
same,LDH,H9c2 cells [3]; [8],24.7 ± 0.56 U/ml
same,"LDH, percent protection vs menadione control",H9c2 cells [3]; [8],(30%)
same,LDH,H9c2 cells [3]; [9],13.5 ± 0.08 U/ml
same,GSH Level,H9c2 cells [4]; [8],24.5 ± 2.03 nmol/mg protein
same,"GSH Level, percent increase vs menadione control",H9c2 cells [4]; [8],(55%)
same,GSH Level,H9c2 cells [4]; [9],48.4 ± 0.60 nmol/mg protein
same,"GSH Level, percent increase vs non-menadione control",H9c2 cells [4]; [9],(41%)
same,Hsp 25 Level,Hsp25; [7],1722 ± 99 AU
same,Hsp 25 Level,Hsp25; 8 h post-dosing,1832 ± 105 AU
same,Hsp 25 Level,Hsp25; 16 h post-dosing,1498 ± 86 AU
same,Hsp 25 Level,Hsp25; 24 h post-dosing,2168 ± 125 AU
same,"Hsp 25 Level, percent increase vs unpretreated control (0 h)",Hsp25; 24 h post-dosing,(26%)
same,Hsp 25 Level,Hsp25; 48 h post-dosing,1673 ± 97 AU
same,Hsp 70 Level,Hsp70; [7],465 ± 14.3 AU
same,Hsp 70 Level,Hsp70; 8 h post-dosing,576 ± 20.3 AU
same,Hsp 70 Level,Hsp70; 16 h post-dosing,657 ± 13.4 AU
same,Hsp 70 Level,Hsp70; 24 h post-dosing,834 ± 48.1 AU
same,"Hsp 70 Level, percent increase vs unpretreated control (0 h)",Hsp70; 24 h post-dosing,(79%)
same,Hsp 70 Level,Hsp70; 48 h post-dosing,656 ± 37.8 AU
same,percentage of cell death,H9c2 cells [5],11%
